In patent US20060263802A1 (priority 2003, published 2006):

Assays:
Format in all cases: binding
[1] = system: human monoclonal antibody CRJB
[2] = system: human monoclonal antibody CR57
[3] = system: human monoclonal antibody CRJA
[4] = system: human monoclonal antibody CRJB; remark: listed apart in the source
[5] = system: human monoclonal antibody CR57; remark: listed apart in the source
[6] = system: human monoclonal antibody CRJA; remark: listed apart in the source

Sequence | Binding of CRJB to linear peptide (PEPSCAN-ELISA signal) [1] | Binding of CR57 to linear peptide (PEPSCAN-ELISA signal) [2] | Binding of CRJA to linear peptide (PEPSCAN-ELISA signal) [3] | Binding of CRJB (10 μg/ml) to looped/cyclic peptide (PEPSCAN-ELISA signal) [4] | Binding of CR57 (10 μg/ml) to looped/cyclic peptide (PEPSCAN-ELISA signal) [5] | Binding of CRJA (10 μg/ml) to looped/cyclic peptide (PEPSCAN-ELISA signal) [6] | Binding of CRJB (10 μg/ml) to looped/cyclic peptide (PEPSCAN-ELISA) [4] | Binding of CR57 (10 μg/ml) to looped/cyclic peptide (PEPSCAN-ELISA) [5] | Binding of CRJA (10 μg/ml) to looped/cyclic peptide (PEPSCAN-ELISA) [6] | Binding of human monoclonal antibody CRJB to linear peptide (PEPSCAN-ELISA signal) [1] | Binding of human monoclonal antibody CR57 to linear peptide (PEPSCAN-ELISA signal) [2] | Binding of human monoclonal antibody CRJA to linear peptide (PEPSCAN-ELISA signal) [3] | Binding of CRJB to looped/cyclic peptide (PEPSCAN-ELISA signal) [4] | Binding of CR57 to looped/cyclic peptide (PEPSCAN-ELISA signal) [5] | Binding of CRJA to looped/cyclic peptide (PEPSCAN-ELISA signal) [6]
TTKESLVIISPSVAD | 121 | 78 | 91 | 71 | 114 | 108 |  |  |  |  |  |  |  |  | 
TTKSVSFRRLSHLRK | 118 | 66 | 94 |  |  |  | 72 | 92 | 97 |  |  |  |  |  | 
TTTFKRKHFRPTPDA | 108 | 80 | 76 | 99 | 90 | 93 |  |  |  |  |  |  |  |  | 
TVFKDGDEAEDFVEV |  |  |  |  |  |  |  |  |  | 124 | 107 | 92 | 90 | 111 | 110
TVKTTKESLVIISPS | 116 | 76 | 93 | 55 | 94 | 92 |  |  |  |  |  |  |  |  | 
TWNEILPSKGCLRVG | 146 | 97 | 93 |  |  |  | 113 | 132 | 127 |  |  |  |  |  | 
TWVAMQTSNETKWCP | 118 | 78 | 100 |  |  |  | 89 | 87 | 84 |  |  |  |  |  | 
TYCSTNHDYTIWMPE | 107 | 96 | 87 | 93 | 104 | 97 |  |  |  |  |  |  |  |  | 
VADLDPYDRSLHSRV | 113 | 71 | 92 | 74 | 85 | 89 |  |  |  |  |  |  |  |  | 
VAMQTSNETKWCPPD | 104 | 86 | 97 |  |  |  | 66 | 45 | 90 |  |  |  |  |  | 
VAVSSTYCSTNHDYT | 114 | 85 | 106 | 83 | 103 | 88 |  |  |  |  |  |  |  |  | 
VDERGLYKSLKGACK | 108 | 50 | 82 |  |  |  | 80 | 105 | 96 |  |  |  |  |  | 
VEDEGCTNLSGFSYM | 103 | 74 | 82 | 78 | 83 | 86 |  |  |  |  |  |  |  |  | 
VEELVRKREECLDAL | 111 | 58 | 84 |  |  |  | 27 | 55 | 69 |  |  |  |  |  | 
VEVHLPDVHNQVSGV |  |  |  |  |  |  |  |  |  | 141 | 106 | 117 | 104 | 138 | 120
VFFNGIILGPDGNVL | 132 | 55 | 82 |  |  |  | 93 | 110 | 83 |  |  |  |  |  | 
VFKDGDEAEDFVEVH |  |  |  |  |  |  |  |  |  | 106 | 100 | 125 | 125 | 168 | 104
VFPSGKCSGVAVSST | 114 | 74 | 68 | 75 | 79 | 55 |  |  |  |  |  |  |  |  | 
VGGRCHPHVNGVFFN | 136 | 120 | 92 |  |  |  | 64 | 143 | 106 |  |  |  |  |  | 
VGYILAIKMNGFTCT | 93 | 77 | 70 | 86 | 97 | 105 |  |  |  |  |  |  |  |  | 
VGYVTTTFKRKHFRP | 113 | 75 | 80 | 85 | 117 | 100 |  |  |  |  |  |  |  |  | 
VHLPDVHNQVSGVDL |  |  |  |  |  |  |  |  |  | 114 | 110 | 104 | 94 | 105 | 92
